Entries after “also recorded” stand apart in the source; their conditions may differ.
Tests used:
[1] = test system: platelets and endothelium in LPS-stimulated lung-on-a-chip (PAR-1); assay: Platelet-endothelial dynamics (P-E) in LPS-stimulated lung-on-a-chip with PM2; assay type: cell-based, human
From the text: (§1) Specifically, the analysis includes a method to quantitate platelet function in flow chambers and microfluidic devices that has been primarily limited to analyzing platelet adhesion on bare collagen surfaces. To analyze platelet-endothelial dynamics that will act as a robust readout of physiologically-relevant clotting, an automated imaging program creates an image time-series, K(x, y, t), containing a 10-frame panorama in space. Images are acquired at a frame rate of 2 panoramic images per minute, for a total time of 15 minutes. A non-dimensional stochastic index is derived to quantitate platelet endothelial dynamics (“P-E”), which is the interpercentile range of a coefficient of variance of the image time-series: P-E=range(CV(K(x,y,t) (1) A feature of this analytical readout is that instead of an “ensemble averaging,” the method incorporates the cell-surface interactions at the pixel level and quantitates statistical “dispersion” of interactions.
(§2) After plasma treatment of the microfluidic devices, the two chambers are pre-treated with 10% (3-aminopropyl)-trimethoxysilane (APTMES, e.g., from Sigma) in 100% anhydrous alcohol (e.g., from Sigma) for 10-20 minutes. The chambers are flushed sequentially with 70% ethanol in water and 100% ethanol, and then dried at 60-80° C. for two hours. Then, a mixture of rat tail collagen I (100 μg ml^−1 in PBS, from BD Biosciences) and fibronectin (e.g., 30 μg/ml in PBSm, from BD Biosciences) is introduced in both chambers of the microfluidic device. The microfluidic device is incubated at 37° C. for at least 2 hours before flushing with PBS or EGM-2 cell culture media.
(§3) Some of the microfluidic devices are used with collagen coating alone (without cells). In other devices, HUVECs (e.g. from Lonza) are cultured in Endothelial Growth Medium-2 (EGM-2, from Lonza) and used between certain passages. The cells (5-10×10^6 cells/ml) are introduced into the collagen-coated channels and incubated for 20 minutes at 37° C. to promote cell attachment before a second similar HUVEC suspension is, then, introduced. The microfluidic devices are incubated upside down for an additional 20 minutes to seed the cells on the ceiling and walls of the lower chamber.
The lower chamber is then flushed with EGM-2 and, then, a suspension of primary alveolar epithelial cells (e.g., from ScienCell Research Labs, Carlsbad, Calif.; 5-6×10^6 cells ml^−1) is introduced into the top chamber of the device. After a few hours, the top and bottom chambers are flushed with their respective media, and the microfluidic devices are incubated at 37° C. under 5% CO2 for 3 days (with media being replaced each day once). […]

C57BL/6J mice = assay: Mouse laser injury model of thrombosis and lung histology after LPS; assay type: in vivo
Description: In the above described techniques, C57BL/6J mice (about 8-12 weeks old) are used. For example, the mice are purchased from the Jackson Laboratory (Bar Harbor, Me.). Animal care and experimental procedures are performed in accordance with and under approval of the Beth Israel Deaconess Medical Center (“BIDMC”) Institutional Animal Care and Use Committee.
LPS is isolated from Escherichia coli serotype 0111:B4 (e.g., from Sigma-Aldrich, St Louis, Mo.). The anti-platelet antibody CD42b conjugated to Dylight649 is purchased, for example, from Emfret Analytics (Eibelstadt, Germany).
A laser-induced injury model of thrombosis is optionally used to monitor thrombosis formation in cremaster arterioles and venules in response to intraperitoneal injection of LPS (e.g., 10 mg kg^−1) or vehicle (e.g., physiological saline solution). Intravital microscopy of the cremaster microcirculation is performed, with injury to a cremaster arteriolar (e.g., 30-50 μm diameter) vessel wall being induced with a Micropoint Laser System (e.g., from Photonics Instruments, Chicago, Ill.). The Micropoint Laser System is focused through a microscope objective, parfocal with the focal plane and tuned to 440 nm. Data is captured digitally in a single fluorescence channel at 647/670 nm. Data acquisition is initiated both prior to and following a single laser pulse for each injury. Images are captured using a CCD camera (e.g., from Hamamatsu) at frame rates of 1/0.2 s^−1 and 1/0.5 s^−1, for a total of 240 seconds. The microscope system is controlled and images are analyzed using Slidebook (e.g., from Intelligent Imaging Innovations, Denver, Colo.). Anti-platelet antibodies re infused into the mice prior to vessel wall injury.
Histology Lungs are harvested in 4% paraformaldehyde. Following overnight incubation, lungs re transferred to 70% ethanol. Paraffin-embedded lungs are sectioned and stained with Hematoxylin and eosin […] or Masson's Trichome stain (MTS). This work is done by the histology and microscopy core at BIDMC.

[2] = test system: primary alveolar epithelial cells (AE) and endothelial cells with whole blood; assay: Lung-on-a-chip stimulated with TNF-α or LPS: vascular ICAM-1, P-E, clots, gap junctions; assay type: cell-based, human
From the text: as §1, §2, §3
The lower chamber is then flushed with EGM-2 and, then, a suspension of primary alveolar epithelial cells (e.g., from ScienCell Research Labs, Carlsbad, Calif.; 5-6×10^6 cells ml^−1) is introduced into the top chamber of the device. After a few hours, the top and bottom chambers are flushed with their respective media, and the microfluidic devices are incubated at 37° C. under 5% CO2 for 3 days (with media being replaced each day once). On day 4, the bottom vascular chamber is set on perfusion of EGM-2 media (e.g., 30 μL hr^−1; 0.5% fetal bovine serum) to provide shear to the HUVEC vessel chamber and a continuous supply of fresh media.
On day 6, the epithelial cell media in the top chamber is aspirated to create the air-liquid interface of the alveoli. Hereon, the cell culture continues for another 6-8 days, after which, in some cases, the top chamber is supplemented with 0, 5, or 100 ng ml^−1 TNF-α in PBS (e.g., from Sigma) overnight or LPS (e.g., 100 ng ml^−1 of E. Coli, from Sigma,) for 2 hours to cause cell activation. The LPS is sonicated in ultrasonic bath for about 20-30 minutes before introducing into the microfluidic device. After stimulation, the top chamber is clamped, the bottom chamber is rinsed with culture media, a reservoir cut from a 3 ml slip-tip syringe (e.g., from BD) is inserted on one end of the lower chamber, and a 1/16-inch male luer connector (e.g., from Qosina Corp) is inserted on the other end of the lower chamber.
When analyzing the formation of fibrin, blood samples re added with 15 μg ml^−1 of fluorescently labeled fibrinogen (e.g., Alexa 488 from Invitrogen). […]

Row | Compound | platelet-endothelial dynamics (P-E) ([1]; PM2 30 μM added to blood alone, AE side stimulated with LPS) | clotting and platelet-endothelial dynamics (P-E) ([1]; PM2 30 μM added to endothelial cell culture medium, AE side stimulated with LPS 100 ng/ml) | P-E and thrombotic activity ([1]; PM2 added to both endothelium and platelets, AE side stimulated with LPS) | overall effect of PM2 in LPS-stimulated lung-on-a-chip ([1]; model of acute lung dysfunction, whole blood perfusion) | lung histology (C57BL/6J mice; LPS injection) | increase in P-E in cremaster artery and vein (C57BL/6J mice; laser injury plus LPS) | platelet-endothelial interactions / thrombosis in cremaster artery or vein (C57BL/6J mice; systemic LPS alone (10 mg kg^-1 intraperitoneal)) | platelet-endothelial dynamics (P-E) ([2]; LPS in the absence of AE) | gap junctions ([2]; LPS in the presence of AE) | thrombus formation ([2]; LPS stimulation of endothelium alone) | endothelial inflammation (vascular ICAM-1) ([2]; LPS stimulation over the AE) | platelet-endothelial dynamics (P-E) ([2]; LPS stimulation over the AE) | thrombus formation (platelet aggregates, fibrin) in the lumen ([2]; LPS-stimulated device containing AE) | gap junctions ([2]; blood vessel alone stimulated with LPS) | vascular ICAM-1 ([2]; blood vessel alone stimulated with LPS for 2 hours (no AE))
1 | CCCC(=O)Nc1cccc(NC(=O)c2ccccc2Br)c1 [PM2, parmodulin 2] | reduction of P-E | no significant clotting occurs | completely inhibits the P-E and thrombotic activity | endothelial cytoprotective effect; also recorded: cytoprotective and anti-thrombotic effect | – | – | – | – | – | – | – | – | – | – | –
2 | lipopolysaccharide [LPS] | – | – | – | – | lung injury and pulmonary thrombosis; also recorded: causes clotting in the lung | further exacerbated | does not induce any platelet-endothelial interactions; also recorded: does not cause thrombosis in a cremaster artery or vein | near absent | significantly increase | does not cause thrombus formation | inflamed | significantly increases | large platelet aggregates are formed along with significant fibrin in the lumen; also recorded: vascular dysfunction and rapid clotting | not affected | no significant increase in ICAM-1

— patent publication US10732172B1, “Methods, systems, and compositions for determining blood clot formation, and uses thereof” (President and Fellows of Harvard College, priority 2015, dated 2020)
